In patent publication US20190119196A1, “COMPOUNDS FOR THE TREATMENT OF […]” (priority 2016, published 2019):
Counter-ions that a name gives are not always drawn. Like-named read-outs stand apart in the source and are kept apart here.

What was measured:
human β2-adrenoceptor = biological target: T1, human β2-adrenoceptor (Homo sapiens, UniProt P07550); experiment: 3H-CGP 12177 whole cell β2 binding
T1 construct: expressed in transfected cells
Experimental: ^3H-CGP 12177 Whole Cell β2 Binding
Chinese Hamster Ovary (CHO) cells stably expressing the human β2-adrenoceptor were grown in Dulbecco's modified Eagle's medium nutrient mix F12 (DMEM/F12) containing 10% fetal calf serum and 2 mM L-glutamine in a 37° C. humidified 5% CO2:95% air atmosphere. The cells were seeded (100 000 cells/mL) into white-sided, clear-bottomed 96-well isoplates and allowed to grow to confluence for the following day's experiment. Next day, the media was removed from each well of the isoplate. Aliquots of the test compounds (10^−2 M in DMSO) were diluted in DMEM/F12 containing 2 mM L-glutamine (serum-free media) to final concentration ranges of 10^−4 M to 10^−10 M and added to each well. The radioligand ^3H-CGP 12177 was diluted in the same medium (˜1 nM final well concentration) and added to each well. Propranolol and CGP 12177 (10 μM) were used to measure non-specific binding. The cells were incubated for 2 hours at 37° C. After incubation, the cells were washed twice by the addition and removal of 200 μL ice-cold phosphate-buffered saline (PBS). Cells were then lysed with Optiphase Supermix cocktail (100 μL/well) and a clear sealant top was applied to the plate. The plate was left overnight in the dark at room temperature, centrifuged (1000 rpm, 1 min) and measured in a MicroBeta2 Microplate Counter (Perkin Elmer) (10 minutes pre-incubation, 2 min counts/well).
All data points on each binding curve were measured in duplicates. Each 96-well plate also contained four determinations of total and non-specific binding. Non-specific binding was determined in the presence of CGP 12177 and propranolol (10 μM). […] All data points are measured in counts per minute (CPM) and converted into disintegrations per minute (DPM) by dividing the count rate (CPM) with the counting efficiency of the instruments detector (57%). The numerical values were obtained by using the GraphPad Prism 7 programme and are given as -log K (pKi) in the table.

L6-myotubes [1] = experiment: Measurement of intracellular cAMP levels (alpha screen cAMP kit); type: cell-based; conditions: agonist final concentration 1×10^−5, 15 min; differentiated cells; 1 mM IBMX
Experimental: (§1) L6-myoblasts were grown in Dulbecco's Modified Eagle's Medium (DMEM) containing 4,5 g/I glucose supplemented with 10% fetal bovine serum, 2 mM L-Glutamine, 50 U/ml penicillin, 50 μg/ml streptomycin and 10 mM HEPES. Cells were plated at 1×10^5 cells per ml in 24-well plates. After reaching 90% confluence the cells were grown in medium containing 2% FBS for 7 days where upon cells differentited into myotubes.
Differentiated cells were serum-starved over night and stimulated with agonist, final concentration 1×10−^5, for 15 min in stimulation buffer (HBSS supplemented with 1% BSA, 5 mM HEPES and 1 mM IBMX, pH 7,4) The medium was then aspirated and to end the reaction 100 μL of 95% EtOH was added to each well of a 24-well plate and cells were kept in −20° C. over night. The EtOH was let to evaporate and 500 μL of lysis buffer (1% BSA, 5 mM HEPES and 0,3% Tween-20, pH 7.4) was added to each well before put in −80° C. for 30 min and then kept in −20° C. Intracellular cAMP levels were detected using an alpha screen cAMP kit (6760635D from Perkin Elmer). The numerical values in the table are given as % increase over the basal level.

L6-myotubes [2] = experiment: Glucose uptake in differentiated L6-myotubes (3H-2-deoxy-glucose); type: cell-based; conditions: read-out: Biological example 1: glucose uptake, % increase over the basal level
Experimental: as §1
Differentiated L6-myotubes were serum-starved over night in medium containing 0.5% fatty-acid free BSA and stimulated with agonist, […], glucose free medium or PBS and another portion of agonist was added to glucose free medium. […] Cell lysate was mixed with scintillation buffer (Emulsifier Safe, Perkin Elmer and radioactivity detected in a β-counter (Tri-Carb 2800TR, Perkin Elmer). The numerical values in the table are given as % increase over the basal level.

[3] = CHO cells stably expressing the human β2-adrenoceptor, ~1 nM 3H-CGP 12177, 2 hours at 37° C., read-out: Biological example 3: -log K (pKi), 3H-CGP 12177 whole cell β2 binding (converted)
[4] = agonist final concentration 1×10^−5, differentiated L6-myotubes, 50 nM 3H-2-deoxy-glucose

T1 sequence (P07550 whole entry): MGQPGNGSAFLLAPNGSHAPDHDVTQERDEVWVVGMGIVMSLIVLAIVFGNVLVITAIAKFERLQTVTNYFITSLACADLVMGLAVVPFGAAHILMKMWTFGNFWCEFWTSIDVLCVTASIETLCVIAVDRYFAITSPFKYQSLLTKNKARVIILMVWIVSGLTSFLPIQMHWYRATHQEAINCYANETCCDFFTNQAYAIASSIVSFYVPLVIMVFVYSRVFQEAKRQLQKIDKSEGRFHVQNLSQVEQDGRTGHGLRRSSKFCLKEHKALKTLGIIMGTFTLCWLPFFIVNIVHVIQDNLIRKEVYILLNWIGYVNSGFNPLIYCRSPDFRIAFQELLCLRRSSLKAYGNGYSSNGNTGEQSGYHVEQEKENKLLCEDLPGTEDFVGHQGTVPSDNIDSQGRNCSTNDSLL

## CCCC(C)NC(C)C(O)c1ccc(O)cc1 (mixture of isomers) [Example 13, 4-(1-Hydroxy-2-(pentan-2-ylamino)propyl)phenol acetate]
Human β2-adrenoceptor; [3]
  Ki: 15.8 µM
L6-myotubes [1]
  Biological example 2: intracellular cAMP levels, % increase over the basal level: −1%
L6-myotubes [2]; [4]
  activation: 42%

## CCCC(C)NCC(O)c1cc(Cl)c(N)c(Cl)c1 (mixture of isomers) [Example 28, 1-(4-Amino-3,5-dichlorophenyl)-2-(pentan-2-ylamino)ethan-1-ol trifluoroacetate]
Human β2-adrenoceptor
  Ki: 0.398 µM
L6-myotubes [1]
  Biological example 2: intracellular cAMP levels, % increase over the basal level: 2%
L6-myotubes [2]
  activation: 39%

## Oc1ccc(C(O)CNCCC2CC2)cc1 (stereo not shown) [Example 22, 4-(2-((2-Cyclopropylethyl)amino)-1-hydroxyethyl)phenol]
Human β2-adrenoceptor; [3]
  Ki: 12.6 µM
L6-myotubes [1]
  Biological example 2: intracellular cAMP levels, % increase over the basal level: 20%
L6-myotubes [2]; [4]
  activation: 30%

## CCCCNCC(O)c1ccc(O)c(Cl)c1 (stereo not shown) [Example 20, 4-(2-(Butylamino)-1-hydroxyethyl)-2-chlorophenol]
Human β2-adrenoceptor; [3]
  Ki: 3.16 µM
L6-myotubes [1]
  Biological example 2: intracellular cAMP levels, % increase over the basal level: −19%
L6-myotubes [2]; [4]
  activation: 12%

## CCCC(C)NCC(O)c1cc(Cl)c(O)c(Cl)c1 (mixture of isomers) [Example 27, 2,6-Dichloro-4-(1-hydroxy-2-(pentan-2-ylamino)ethyl)phenol]
Human β2-adrenoceptor; [3]
  Ki: 1.26 µM
L6-myotubes [1]
  Biological example 2: intracellular cAMP levels, % increase over the basal level: 86%
L6-myotubes [2]; [4]
  activation: 6%

## Oc1ccc(C(O)CNC23CC4CC(CC(C4)C2)C3)cc1 (stereo not shown) [Example 9, 4-(2-(adamantan-1-ylamino)-1-hydroxyethyl)phenol hemisulfate]
Human β2-adrenoceptor; [3]
  Ki: 50.1 µM
L6-myotubes [1]
  Biological example 2: intracellular cAMP levels, % increase over the basal level: 4%
L6-myotubes [2]; [4]
  activation: 18%

## CCCCNC[C@H](O)c1ccc(O)cc1 [Example 11, (R)-4-(2-(Butylamino)-1-hydroxyethyl)phenol hemisulfate]
Human β2-adrenoceptor; [3]
  Ki: 39.8 µM
L6-myotubes [1]
  Biological example 2: intracellular cAMP levels, % increase over the basal level: 10%
L6-myotubes [2]; [4]
  activation: 50%

## Oc1ccc(C(O)CNCCCC2CCCCC2)cc1 (stereo not shown) [Example 21, 4-(2-((3-Cyclohexylpropyl)amino)-1-hydroxyethyl)phenol]
Human β2-adrenoceptor; [3]
  Ki: 2 µM
L6-myotubes [1]
  Biological example 2: intracellular cAMP levels, % increase over the basal level: −16%
L6-myotubes [2]; [4]
  activation: 37%

## CCC(C)NCC(O)c1ccc(O)cc1 (stereo not shown) [Example 5, 4-(2-(sec-Butylamino)-1-hydroxyethyl)phenol]
Human β2-adrenoceptor; [3]
  Ki: 5.01 µM
L6-myotubes [1]
  Biological example 2: intracellular cAMP levels, % increase over the basal level: 18%
L6-myotubes [2]; [4]
  activation: 39%

## CCCCCCCCNCC(O)c1ccc(O)cc1 (stereo not shown) [Example 18, 4-(1-Hydroxy-2-(octylamino)ethyl)phenol acetate]
Human β2-adrenoceptor; [3]
  Ki: 6.31 µM
L6-myotubes [1]
  Biological example 2: intracellular cAMP levels, % increase over the basal level: −23%
L6-myotubes [2]; [4]
  activation: 26%

## CCCCNC(C)C(O)c1ccc(O)cc1 (stereo not shown) [Example 12, 4-(2-(Butylamino)-1-hydroxypropyl)phenol acetate]
Human β2-adrenoceptor; [3]
  Ki: 7.94 µM
L6-myotubes [1]
  Biological example 2: intracellular cAMP levels, % increase over the basal level: 190%
L6-myotubes [2]; [4]
  activation: 40%

## CCCCNCC(O)c1cc(O)cc(O)c1 (stereo not shown) [Example 25, 5-(2-(Butylamino)-1-hydroxyethyl)benzene-1,3-diol hemisulphate]
Human β2-adrenoceptor; [3]
  Ki: 39.8 µM
L6-myotubes [1]
  Biological example 2: intracellular cAMP levels, % increase over the basal level: 115%
L6-myotubes [2]; [4]
  activation: 32%

## CCCCNCC(O)c1cc(Cl)c(N)c(Cl)c1 (stereo not shown) [Example 29, 1-(4-Amino-3,5-dichlorophenyl)-2-(butylamino)ethan-1-ol trifluoroacetate]
Human β2-adrenoceptor
  Ki: 0.316 µM
L6-myotubes [1]
  Biological example 2: intracellular cAMP levels, % increase over the basal level: 222%
L6-myotubes [2]
  activation: 48%

## Oc1ccc(C(O)CNCCCC(F)(F)F)cc1 (stereo not shown) [Example 24, 4-(1-Hydroxy-2-((4,4,4-trifluorobutyl)amino)ethyl)phenol acetate]
Human β2-adrenoceptor; [3]
  Ki: 10 µM
L6-myotubes [2]; [4]
  activation: 22%

## CCCCCCNCC(O)c1ccc(O)cc1 (stereo not shown) [Example 17, 4-(2-(Hexylamino)-1-hydroxyethyl)phenol acetate]
Human β2-adrenoceptor; [3]
  Ki: 6.31 µM
L6-myotubes [1]
  Biological example 2: intracellular cAMP levels, % increase over the basal level: 70%
L6-myotubes [2]; [4]
  activation: 26%

## CCCCNCC(O)c1cc(Cl)c(O)c(Cl)c1 (stereo not shown) [Example 26, 4-(2-(Butylamino)-1-hydroxyethyl)-2,6-dichlorophenol]
Human β2-adrenoceptor; [3]
  Ki: 25.1 µM
L6-myotubes [1]
  Biological example 2: intracellular cAMP levels, % increase over the basal level: −0.3%
L6-myotubes [2]
  activation: 10%

## CCCCNCC(O)c1ccc(Cl)c(N)c1 (stereo not shown) [Example 34, 1-(3-Amino-4-chlorophenyl)-2-(butylamino)ethan-1-ol]
Human β2-adrenoceptor; [3]
  Ki: 3.16 µM
L6-myotubes [1]
  Biological example 2: intracellular cAMP levels, % increase over the basal level: 0%
L6-myotubes [2]; [4]
  activation: 20%

## CCCCNCC(O)c1ccc(O)cc1 (stereo not shown) [Example 1, 4-(2-(Butylamino)-1-hydroxyethyl)phenol]
Human β2-adrenoceptor; [3]
  Ki: 25.1 µM
L6-myotubes [1]
  Biological example 2: intracellular cAMP levels, % increase over the basal level: 1%
L6-myotubes [2]; [4]
  activation: 50%

## CCCC(C)NCC(O)c1ccc(Cl)c(O)c1 (mixture of isomers) [Example 33, 2-Chloro-5-(1-hydroxy-2-(pentan-2-ylamino)ethyl)phenol]
Human β2-adrenoceptor; [3]
  Ki: 1 µM
L6-myotubes [1]
  Biological example 2: intracellular cAMP levels, % increase over the basal level: 1191%
L6-myotubes [2]; [4]
  activation: 55%

## OC(CNCC1CCCCC1)c1ccccc1 (stereo not shown) [Example 10, 2-((cyclohexylmethyl)amino)-1-phenylethan-1-ol]
Human β2-adrenoceptor; [3]
  Ki: 25.1 µM
L6-myotubes [1]
  Biological example 2: intracellular cAMP levels, % increase over the basal level: 5%
L6-myotubes [2]; [4]
  activation: 39%

## CCCCNCC(O)c1ccc(Cl)c(O)c1 (stereo not shown) [Example 32, 5-(2-(Butylamino)-1-hydroxyethyl)-2-chlorophenol]
Human β2-adrenoceptor; [3]
  Ki: 6.31 µM
L6-myotubes [1]
  Biological example 2: intracellular cAMP levels, % increase over the basal level: 371%
L6-myotubes [2]; [4]
  activation: 53%

## Oc1ccc(C(O)CNCCCC2CC2)cc1 (stereo not shown) [Example 23, 4-(2-((3-Cyclopropylpropyl)amino)-1-hydroxyethyl)phenol acetate]
Human β2-adrenoceptor; [3]
  Ki: 7.94 µM
L6-myotubes [2]; [4]
  activation: 28%

## Oc1ccc(C(O)CNCC2CC2)cc1 (stereo not shown) [Example 3, 4-(2-((Cyclopropylmethyl)amino)-1-hydroxyethyl)phenol]
Human β2-adrenoceptor; [3]
  Ki: 25.1 µM
L6-myotubes [1]
  Biological example 2: intracellular cAMP levels, % increase over the basal level: 18%
L6-myotubes [2]; [4]
  activation: 86%

## Oc1ccc(C(O)CNCCC2CCCCC2)cc1 (stereo not shown) [Example 16, 4-(2-((2-Cyclohexylethyl)amino)-1-hydroxyethyl)phenol acetate]
Human β2-adrenoceptor; [3]
  Ki: 5.01 µM
L6-myotubes [1]
  Biological example 2: intracellular cAMP levels, % increase over the basal level: −56%
L6-myotubes [2]; [4]
  activation: 23%

## Oc1ccc(C(O)CNC2CCCC2)cc1 (stereo not shown) [Example 7, 4-(2-(cyclopentylamino)-1-hydroxyethyl)phenol acetate]
Human β2-adrenoceptor; [3]
  Ki: 5.01 µM
L6-myotubes [1]
  Biological example 2: intracellular cAMP levels, % increase over the basal level: 1%
L6-myotubes [2]; [4]
  activation: 23%

## CCCC(C)NCC(O)c1cccc(O)c1 (mixture of isomers) [Example 15, 3-(1-Hydroxy-2-(pentan-2-ylamino)ethyl)phenol]
Human β2-adrenoceptor; [3]
  Ki: 0.794 µM
L6-myotubes [1]
  Biological example 2: intracellular cAMP levels, % increase over the basal level: 20%
L6-myotubes [2]; [4]
  activation: 31%

## CCCC(C)NCC(O)c1ccc(O)c(Cl)c1 (mixture of isomers) [Example 19, 2-Chloro-4-(1-hydroxy-2-(pentan-2-ylamino)ethyl)phenol]
Human β2-adrenoceptor; [3]
  Ki: 0.501 µM
L6-myotubes [1]
  Biological example 2: intracellular cAMP levels, % increase over the basal level: −52%
L6-myotubes [2]; [4]
  activation: 30%

## CCCCNCC(O)c1cc(F)c(N)c(F)c1 (stereo not shown) [Example 35, 1-(4-Amino-3,5-difluorophenyl)-2-(butylamino)ethan-1-ol]
Human β2-adrenoceptor; [3]
  Ki: 3.98 µM
L6-myotubes [1]
  Biological example 2: intracellular cAMP levels, % increase over the basal level: 6536%
L6-myotubes [2]; [4]
  activation: 65%

## CC(C)(C)NCC(O)c1ccc(O)cc1 (stereo not shown) [Example 4, 4-(2-(tert-Butylamino)-1-hydroxyethyl)phenol]
Human β2-adrenoceptor; [3]
  Ki: 1 µM
L6-myotubes [1]
  Biological example 2: intracellular cAMP levels, % increase over the basal level: 40%
L6-myotubes [2]
  activation: 62%
